Measured values reported in PubChem BioAssay AID1963441 (Molecular Pharmacology Branch, DTP, NCI, 2024).
Values joined by “and” are separate entries in the source; they are usually repeats but may differ in a detail not shown here. Equal values may be shown once.

Tested on: NCI-H1876 complex spheroid growth, % test/control
Assay: Anticancer human tumor NCI-H1876 cell line growth inhibition [Asc];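 note: compound exposure lasted 7 days starting three days after seeding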;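 for viability, T/C: 100% = DMSO vehicle control wells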
Conditions: for viability, T/C: stronger effect = lower value
Outline: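 Spheroid model: tumor line + HUVEC + hMSC. Single agents and combinations; top conc. at/near clinical Cmax (10 microM if undetermined), half-log dilutions. DMSO stocks at 800-fold test concentration.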

[1] = curve of first compound, second compound 0.0316 µM
[2] = curve of first compound, second compound 0.1 µM
[3] = curve of first compound, second compound 0.316 µM
[4] = curve of first compound, second compound 1 µM
[5] = curve of first compound, second compound 3.16 µM
[6] = curve of first compound, second compound 10 µM

`O=C(c1ccc(F)c(F)c1Nc1ccc(I)cc1F)N1CC(O)([C@@H]2CCCCN2)C1` was tested, and the viability, T/C (compound 0.00316 µM) was 101% and 103% (2×), the viability, T/C (compound 0.01 µM) was 86.9% and 95% and 94% and the viability, T/C (compound 0.0316 µM) was 93.7% and 92.9% and 99%. For the same compound, the viability, T/C (compound 0.1 µM) was 97.5% and 91.4% and 95%, the viability, T/C (compound 0.316 µM) was 86.5% and 84.5% and 83.9% and the viability, T/C (compound 1 µM) was 79.9% and 75.1% and 76.9%. For the same compound, the IC50 (curve of compound) was over 1 µM.
Compound `CCN1C(C(=O)NC23CCC(C(=O)O)(CC2)CC3)C(c2cccc(Cl)c2F)C2(C(=O)Nc3cc(Cl)ccc32)C12CCCCC2` (stereo unspecified) + Cc1c(S(C)(=O)=O)c(-c2cc(F)cc(N3CCN(c4ccc(NS(=O)(=O)c5ccc(NC(CCN6CCC(C(=O)OCCCP(=O)(O)O)CC6)CSc6ccccc6)c(S(=O)(=O)C(F)(F)F)c5)cc4)CC3)c2)c(-c2ccc(Cl)cc2)n1C(C)C has an IC50 [1] of over 3 µM, an IC50 [2] of over 3 µM and an IC50 [3] of over 3 µM. It also gave an IC50 [4] of over 3 µM, an IC50 [5] of over 3 µM and an IC50 [6] of 2.74 µM. The viability, T/C (second compound 0.0316 µM, first compound 0.00949 µM) was 97.3%, the viability, T/C (second compound 0.0316 µM, first compound 0.03 µM) was 85.5% and the viability, T/C (second compound 0.0316 µM, first compound 0.0949 µM) was 98.5%. It also gave a viability, T/C (second compound 0.0316 µM, first compound 0.3 µM) of 107%, a viability, T/C (second compound 0.0316 µM, first compound 0.949 µM) of 125% and a viability, T/C (second compound 0.0316 µM, first compound 3 µM) of 106%. The viability, T/C (second compound 0.1 µM, first compound 0.00949 µM) was 95%, the viability, T/C (second compound 0.1 µM, first compound 0.03 µM) was 105% and the viability, T/C (second compound 0.1 µM, first compound 0.0949 µM) was 99.5%. The viability, T/C (second compound 0.1 µM, first compound 0.3 µM) was 105%, the viability, T/C (second compound 0.1 µM, first compound 0.949 µM) was 124% and the viability, T/C (second compound 0.1 µM, first compound 3 µM) was 98.2%. It also gave a viability, T/C (second compound 0.316 µM, first compound 0.00949 µM) of 99%, a viability, T/C (second compound 0.316 µM, first compound 0.03 µM) of 96.4% and a viability, T/C (second compound 0.316 µM, first compound 0.0949 µM) of 107%. For the same compound, the viability, T/C (second compound 0.316 µM, first compound 0.3 µM) was 96.1%, the viability, T/C (second compound 0.316 µM, first compound 0.949 µM) was 116% and the viability, T/C (second compound 0.316 µM, first compound 3 µM) was 81.2%. It also gave a viability, T/C (second compound 1 µM, first compound 0.00949 µM) of 95.2%, a viability, T/C (second compound 1 µM, first compound 0.03 µM) of 91.7% and a viability, T/C (second compound 1 µM, first compound 0.0949 µM) of 104%. It also gave a viability, T/C (second compound 1 µM, first compound 0.3 µM) of 108%, a viability, T/C (second compound 1 µM, first compound 0.949 µM) of 121% and a viability, T/C (second compound 1 µM, first compound 3 µM) of 60.4%. The viability, T/C (second compound 3.16 µM, first compound 0.00949 µM) was 104%, the viability, T/C (second compound 3.16 µM, first compound 0.03 µM) was 107% and the viability, T/C (second compound 3.16 µM, first compound 0.0949 µM) was 96.6%. The viability, T/C (second compound 3.16 µM, first compound 0.3 µM) was 107%, the viability, T/C (second compound 3.16 µM, first compound 0.949 µM) was 110% and the viability, T/C (second compound 3.16 µM, first compound 3 µM) was 50.7%. The viability, T/C (second compound 10 µM, first compound 0.00949 µM) was 103%, the viability, T/C (second compound 10 µM, first compound 0.03 µM) was 99.7% and the viability, T/C (second compound 10 µM, first compound 0.0949 µM) was 94%. For the same compound, the viability, T/C (second compound 10 µM, first compound 0.3 µM) was 107%, the viability, T/C (second compound 10 µM, first compound 0.949 µM) was 115% and the viability, T/C (second compound 10 µM, first compound 3 µM) was 45.3%.
Compound `C#Cc1c(F)ccc2cc(O)cc(-c3ncc4c(N5CC6CCC(C5)N6)nc(OCC56CCCN5CC(F)C6)nc4c3F)c12` (stereo unspecified) + Cc1c(S(C)(=O)=O)c(-c2cc(F)cc(N3CCN(c4ccc(NS(=O)(=O)c5ccc(NC(CCN6CCC(C(=O)OCCCP(=O)(O)O)CC6)CSc6ccccc6)c(S(=O)(=O)C(F)(F)F)c5)cc4)CC3)c2)c(-c2ccc(Cl)cc2)n1C(C)C has an IC50 [1] of over 10 µM, an IC50 [2] of over 10 µM and an IC50 [3] of over 10 µM. The IC50 [4] was over 10 µM, the IC50 [5] was over 10 µM and the IC50 [6] was over 10 µM. The viability, T/C (second compound 0.0316 µM, first compound 0.0316 µM) was 98.7%, the viability, T/C (second compound 0.0316 µM, first compound 0.1 µM) was 84.9% and the viability, T/C (second compound 0.0316 µM, first compound 0.316 µM) was 108%. It also gave a viability, T/C (second compound 0.0316 µM, first compound 1 µM) of 91.2%, a viability, T/C (second compound 0.0316 µM, first compound 3.16 µM) of 96.8% and a viability, T/C (second compound 0.0316 µM, first compound 10 µM) of 92.9%. It also gave a viability, T/C (second compound 0.1 µM, first compound 0.0316 µM) of 92.2%, a viability, T/C (second compound 0.1 µM, first compound 0.1 µM) of 101% and a viability, T/C (second compound 0.1 µM, first compound 0.316 µM) of 99.3%. The viability, T/C (second compound 0.1 µM, first compound 1 µM) was 83.1%, the viability, T/C (second compound 0.1 µM, first compound 3.16 µM) was 90.6% and the viability, T/C (second compound 0.1 µM, first compound 10 µM) was 88%. It also gave a viability, T/C (second compound 0.316 µM, first compound 0.0316 µM) of 106%, a viability, T/C (second compound 0.316 µM, first compound 0.1 µM) of 90.5% and a viability, T/C (second compound 0.316 µM, first compound 0.316 µM) of 85.5%. For the same compound, the viability, T/C (second compound 0.316 µM, first compound 1 µM) was 90.7%, the viability, T/C (second compound 0.316 µM, first compound 3.16 µM) was 86.5% and the viability, T/C (second compound 0.316 µM, first compound 10 µM) was 86.7%. The viability, T/C (second compound 1 µM, first compound 0.0316 µM) was 90%, the viability, T/C (second compound 1 µM, first compound 0.1 µM) was 97.8% and the viability, T/C (second compound 1 µM, first compound 0.316 µM) was 102%. For the same compound, the viability, T/C (second compound 1 µM, first compound 1 µM) was 92%, the viability, T/C (second compound 1 µM, first compound 3.16 µM) was 88.2% and the viability, T/C (second compound 1 µM, first compound 10 µM) was 73.5%. It also gave a viability, T/C (second compound 3.16 µM, first compound 0.0316 µM) of 101%, a viability, T/C (second compound 3.16 µM, first compound 0.1 µM) of 108% and a viability, T/C (second compound 3.16 µM, first compound 0.316 µM) of 89.5%. It also gave a viability, T/C (second compound 3.16 µM, first compound 1 µM) of 87.4%, a viability, T/C (second compound 3.16 µM, first compound 3.16 µM) of 87.3% and a viability, T/C (second compound 3.16 µM, first compound 10 µM) of 74.7%. For the same compound, the viability, T/C (second compound 10 µM, first compound 0.0316 µM) was 93.2%, the viability, T/C (second compound 10 µM, first compound 0.1 µM) was 99.4% and the viability, T/C (second compound 10 µM, first compound 0.316 µM) was 109%. For the same compound, the viability, T/C (second compound 10 µM, first compound 1 µM) was 93.6%, the viability, T/C (second compound 10 µM, first compound 3.16 µM) was 95.8% and the viability, T/C (second compound 10 µM, first compound 10 µM) was 77%.
